The values that follow come from patent publication US8148391B2 (Cephalon, Inc., priority 2006, dated 2012).

Assay [1] concerns the target T1, baculovirus-expressed ALK (Homo sapiens, UniProt Q9UM73).
T1 construct: host or cells: baculovirus expression system
As to the kind of experiment: ALK Kinase Assay (ELISA-type, time-resolved fluorescence). The assay is classed as biochemical. Summed up: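 Substrate coating: phospholipase C-γ, 10 μg/mL in TBS. Kinase step: 30 ng/ml ALK, 15 min, 37° C. Detection and analysis: Eu-N1 PT66 antibody, with IC50 fitted as a sigmoidal variable-slope dose-response curve.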
On the technique in general: An ELISA detects its analyte on a solid surface through an enzyme-linked reagent.

Assay [2] concerns the target T2, c-Met (cytoplasmic domain) (Homo sapiens, UniProt P08581).
T2 construct: 10 ng/mL c-Met (cytoplasmic domain, Invitrogen Corporation #PV3143); purchased Invitrogen Corporation PV3143
The assay is described as follows: c-Met Kinase Assay (same methods as for ALK, with modifications). The assay is classed as biochemical. Summed up: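 This plate-based kinase format uses immobilized phospholipase C-γ as substrate, phosphorylated by c-Met cytoplasmic domain (10 ng/mL) at 37° C for 15 minutes.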

Where [3] appears, read: 1 μM ATP (Km level), read-out: ALK Activity (ALK Kinase Inhibition, IC50).
Setting [4] is: 1 μM ATP (Km level), read-out: cMet Activity (c-Met Kinase Inhibition, IC50).
Where [5] appears, read: ALK kinase inhibition, 1 μM ATP (Km level), read-out: ALK Activity.
The mark [6] stands for this setting: c-Met kinase inhibition, 1 μM ATP (Km level), read-out: cMet Activity.
Setting [7] is: 1 μM ATP (Km level), 30 ng/ml ALK, 37° C., 15 minutes, read-out: ALK Activity (ALK kinase inhibition, IC50 class).
[8] abbreviates: 1 μM ATP (Km level), 10 ng/mL c-Met, read-out: cMet Activity (c-Met kinase inhibition, IC50 class).
The mark [9] stands for this setting: ALK kinase inhibition, 1 μM ATP, read-out: ALK Activity.
[10] abbreviates: c-Met kinase inhibition, 1 μM ATP, read-out: cMet Activity.

Each structure is given as a SMILES string. Read-outs that look alike come from different tables or passages of the source.

T1 sequence (Q9UM73 19-1620): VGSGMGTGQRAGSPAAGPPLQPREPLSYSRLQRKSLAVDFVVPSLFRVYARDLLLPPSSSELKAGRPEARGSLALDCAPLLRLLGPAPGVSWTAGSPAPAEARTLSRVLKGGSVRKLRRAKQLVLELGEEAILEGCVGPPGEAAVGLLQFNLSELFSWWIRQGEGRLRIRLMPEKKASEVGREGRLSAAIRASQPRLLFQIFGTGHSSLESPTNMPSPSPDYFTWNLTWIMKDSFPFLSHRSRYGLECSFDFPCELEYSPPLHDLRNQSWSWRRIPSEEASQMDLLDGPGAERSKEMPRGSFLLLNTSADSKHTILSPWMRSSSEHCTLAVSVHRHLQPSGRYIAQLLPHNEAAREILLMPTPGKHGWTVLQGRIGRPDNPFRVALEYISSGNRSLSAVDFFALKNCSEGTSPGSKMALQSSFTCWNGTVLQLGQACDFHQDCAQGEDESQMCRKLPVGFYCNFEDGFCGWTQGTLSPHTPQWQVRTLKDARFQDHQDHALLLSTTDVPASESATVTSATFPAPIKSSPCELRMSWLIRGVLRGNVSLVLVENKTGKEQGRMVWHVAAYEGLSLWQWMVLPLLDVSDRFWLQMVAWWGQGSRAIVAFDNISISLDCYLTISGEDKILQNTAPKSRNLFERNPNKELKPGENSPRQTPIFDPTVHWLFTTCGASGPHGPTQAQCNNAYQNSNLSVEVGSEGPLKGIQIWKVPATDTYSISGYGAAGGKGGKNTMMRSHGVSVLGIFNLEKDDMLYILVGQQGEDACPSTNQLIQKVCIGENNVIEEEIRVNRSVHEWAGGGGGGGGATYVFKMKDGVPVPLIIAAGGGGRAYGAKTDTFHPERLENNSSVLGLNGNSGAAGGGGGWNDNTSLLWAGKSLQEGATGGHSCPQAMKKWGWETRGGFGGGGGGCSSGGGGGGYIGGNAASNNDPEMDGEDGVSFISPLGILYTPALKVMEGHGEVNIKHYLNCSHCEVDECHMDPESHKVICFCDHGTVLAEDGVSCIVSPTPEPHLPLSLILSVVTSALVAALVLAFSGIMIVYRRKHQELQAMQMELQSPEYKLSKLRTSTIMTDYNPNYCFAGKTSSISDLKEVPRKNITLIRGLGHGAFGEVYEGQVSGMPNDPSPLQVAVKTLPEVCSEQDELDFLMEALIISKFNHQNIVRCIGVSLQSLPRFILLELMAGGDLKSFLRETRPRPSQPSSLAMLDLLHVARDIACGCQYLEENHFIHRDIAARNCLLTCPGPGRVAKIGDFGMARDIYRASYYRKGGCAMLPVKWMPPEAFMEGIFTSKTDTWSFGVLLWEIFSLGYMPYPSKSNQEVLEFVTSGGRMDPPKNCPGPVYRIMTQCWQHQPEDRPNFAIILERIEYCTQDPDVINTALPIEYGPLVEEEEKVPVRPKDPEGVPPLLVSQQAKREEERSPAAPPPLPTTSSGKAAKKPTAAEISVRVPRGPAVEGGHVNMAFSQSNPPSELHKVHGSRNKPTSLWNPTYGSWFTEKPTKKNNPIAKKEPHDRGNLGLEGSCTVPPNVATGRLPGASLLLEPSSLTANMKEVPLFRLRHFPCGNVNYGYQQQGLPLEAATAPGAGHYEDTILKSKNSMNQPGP
T2 sequence (P08581 956-1390 limits assumed): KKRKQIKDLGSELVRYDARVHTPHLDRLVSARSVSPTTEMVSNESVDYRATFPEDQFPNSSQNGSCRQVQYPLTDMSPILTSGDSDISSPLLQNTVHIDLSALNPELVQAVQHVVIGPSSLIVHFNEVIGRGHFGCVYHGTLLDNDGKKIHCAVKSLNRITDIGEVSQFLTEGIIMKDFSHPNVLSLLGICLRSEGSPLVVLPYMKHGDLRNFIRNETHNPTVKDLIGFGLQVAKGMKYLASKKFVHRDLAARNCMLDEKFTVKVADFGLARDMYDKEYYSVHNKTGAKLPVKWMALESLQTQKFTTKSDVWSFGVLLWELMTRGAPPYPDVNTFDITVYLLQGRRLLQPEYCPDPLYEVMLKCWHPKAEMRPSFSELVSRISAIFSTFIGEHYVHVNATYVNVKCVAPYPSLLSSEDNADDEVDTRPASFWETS

Take `CC1(C)CCCOc2c(Nc3ncc(Cl)c(N[C@@H]4[C@H](C(N)=O)[C@H]5C=C[C@@H]4C5)n3)cccc21` [Example 870, (1R,2R,3S,4S)-3-[5-Chloro-2-(5,5-dimethyl-2,3,4,5-tetrahydro-benzo[b]oxepin-9-ylamino)-pyrimidin-4-ylamino]-bicyclo[2.2.1]hept-5-ene-2-carboxylic acid amide]: the results for the IC50 in assay [1] (setting [3]) and in assay [2] (setting [4]) were 100 to 1000 nM and greater than 10000 nM, respectively.

For `CNC(=O)c1ccccc1Nc1nc(Nc2ccc(OC)c3c2NC(=O)CCC3)ncc1Cl` [Example 18, 2-[5-Chloro-2-(6-methoxy-2-oxo-2,3,4,5-tetrahydro-1H-benzo[b]azepin-9-ylamino)-pyrimidin-4-ylamino]-N-methyl-benzamide], the IC50 is less than 100 nM in assay [1] (setting [5]) and 1000 to 10000 nM in assay [2] (setting [6]).

As to `COc1c(Nc2ncc(Cl)c(Nc3ccccc3S(=O)(=O)N(C)C)n2)ccc2c1CC(N1CCOCC1)CCC2` (racemic) [Example 1210, 2-[5-Chloro-2-(1-methoxy-8-morpholin-4-yl-6,7,8,9-tetrahydro-5H-benzocyclohepten-2-ylamino)-pyrimidin-4-ylamino]-N,N-dimethyl-benzenesulfonamide], the IC50 in assay [1] (setting [7]) was less than 100 nM; in assay [2] (setting [8]), 1000 to 10000 nM.

Regarding `CCN1CCN(CC)c2cc(Nc3ncc(Cl)c(Nc4ccc(N5CCOCC5)cc4OC)n3)ccc2C1` [Example 712, 5-Chloro-N*2*-(1,4-diethyl-2,3,4,5-tetrahydro-1H-benzo[e][1,4]diazepin-8-yl)-N*4*-(2-methoxy-4-morpholin-4-yl-phenyl)-pyrimidin-2,4-diamine], the IC50 in assay [1] (setting [3]) was less than 100 nM; in assay [2] (setting [4]) it was 1000 to 10000 nM.

Take `COCCN1CCc2ccc(Nc3ncc(Cl)c(Nc4ccccc4-c4ncc[nH]4)n3)cc2CC1` [Example 221, 5-Chloro-N*4*-[2-(1H-imidazol-2-yl)-phenyl]-N*2*-[3-(2-methoxy-ethyl)-2,3,4,5-tetrahydro-1H-benzo[d]azepin-7-yl]-pyrimidine-2,4-diamine]: the IC50 in assay [1] (setting [5]) is less than 100 nM; in assay [2] (setting [6]), 100 to 1000 nM.

For the compound `COc1cc2c(cc1Nc1ncc(Cl)c(Nc3ccc(N4CCN(C(C)C)CC4)c4c3C(=O)N(C)C4)n1)CCN(CCO)CC2` [Example 953, 7-{5-Chloro-2-[3-(2-hydroxy-ethyl)-8-methoxy-2,3,4,5-tetrahydro-1H-3-benzazepin-7-ylamino]-pyrimidin-4-ylamino}-4-(4-isopropyl-piperazin-1-yl)-2-methyl-2,3-dihydro-isoindol-1-one], the IC50 was less than 100 nM in assay [1] (setting [3]) and greater than 10000 nM in assay [2] (setting [4]).

As to `CNS(=O)(=O)c1ccccc1Nc1nc(Nc2cccc3c2N(C)CCN(C)C3=O)ncc1Cl` [Example 543, 2-[5-Chloro-2-(1,4-dimethyl-5-oxo-2,3,4,5-tetrahydro-1H-benzo[e][1,4]diazepin-9-ylamino)-pyrimidin-4-ylamino]-N-methyl-benzenesulfonamide], the IC50 in assay [1] (setting [3]) is 1000 to 10000 nM; in assay [2] (setting [4]) it was greater than 10000 nM.

Regarding `COCCN1CCc2ccc(Nc3ncc(Cl)c(Nc4ccccc4S(C)(=O)=O)n3)cc2CC1` [Example 1249, 5-Chloro-N(4)-(2-methanesulfonyl-phenyl)-N(2)-[3-(2-methoxy-ethyl)-2,3,4,5-tetrahydro-1H-3-benzazepin-7-yl]-pyrimidine-2,4-diamine], the results for the IC50 in assay [1] (setting [7]) and in assay [2] (setting [8]) were less than 100 nM and 100 to 1000 nM, respectively.

Turning to `CNC(=O)C1(Nc2nc(Nc3cc4c(cc3OC)CCN(CC(=O)N(C)C)CC4)ncc2Cl)CC1` [Example 1198, 1-[5-Chloro-2-(3-dimethylcarbamoylmethyl-8-methoxy-2,3,4,5-tetrahydro-1H-benzo[d]azepin-7-ylamino)-pyrimidin-4-ylamino]-cyclopropanecarboxylic acid methylamide], the IC50 was less than 100 nM in assay [1] (setting [7]) and greater than 10000 nM in assay [2] (setting [8]).

`CCNC(=O)c1cccc(F)c1Nc1nc(Nc2cc3c(cc2OC)CCN(CC(=O)N(C)C)CC3)ncc1Cl` [Example 1119, 2-[5-Chloro-2-(3-dimethylcarbamoylmethyl-8-methoxy-2,3,4,5-tetrahydro-1H-benzo[d]azepin-7-ylamino)-pyrimidin-4-ylamino]-N-ethyl-3-fluoro-benzamide]: the results for the IC50 in assay [1] (setting [7]) and in assay [2] (setting [8]) were less than 100 nM and 1000 to 10000 nM, respectively.

As for `COc1cc2c(cc1Nc1ncc(Cl)c(Nc3ccc(N(C)C)cc3OC)n1)CCN(CCS(C)(=O)=O)CC2` [Example 1167, 5-Chloro-N*4*-(4-dimethylamino-2-methoxy-phenyl)-N*2*-[3-(2-methanesulfonyl-ethyl)-8-methoxy-2,3,4,5-tetrahydro-1H-benzo[d]azepin-7-yl]-pyrimidine-2,4-diamine], the IC50 in assay [1] (setting [7]) was less than 100 nM; in assay [2] (setting [8]), greater than 10000 nM.

Regarding `CNS(=O)(=O)c1ccccc1Nc1nc(Nc2ccc3c(c2)CCN(CCOC)CC3)ncc1Cl` [Example 35, 2-{5-Chloro-2-[3-(2-methoxy-ethyl)-2,3,4,5-tetrahydro-1H-benzo[d]azepin-7-ylamino]-pyrimidin-4-ylamino}-N-methyl-benzenesulfonamide], the IC50 in assay [1] (setting [5]) is less than 100 nM; in assay [2] (setting [6]), 100 to 1000 nM.

For `COc1c(Nc2ncc(Cl)c(N[C@H]3[C@@H](C(N)=O)[C@@H]4C=C[C@H]3C4)n2)ccc2c1CC[C@@H](N1CCOCC1)CC2` [Example 882, (1S,2S,3R,4R)-3-[5-Chloro-2-((S)-1-methoxy-7-morpholin-4-yl-6,7,8,9-tetrahydro-5H-benzocyclohepten-2-ylamino)-pyrimidin-4-ylamino]-bicyclo[2.2.1]hept-5-ene-2-carboxylic acid amide], the IC50 in assay [1] (setting [3]) is less than 100 nM; in assay [2] (cMet Activity (c-Met Kinase Inhibition, IC50), 1 μM ATP (Km level)), greater than 10000 nM.

On to `COc1cc2c(cc1Nc1ncc(Cl)c(Nc3ccc(C)cc3S(=O)(=O)N(C)C)n1)CCN(CC(=O)N(C)C)CC2` [Example 830, 2-{7-[5-Chloro-4-(2-dimethylsulfamoyl-4-methyl-phenylamino)-pyrimidin-2-ylamino]-8-methoxy-1,2,4,5-tetrahydro-benzo[d]azepin-3-yl}-N,N-dimethyl-acetamide], for which the IC50 in assay [1] (setting [3]) is less than 100 nM; in assay [2] (setting [4]), greater than 10000 nM.

Regarding `CNC(=O)c1ccccc1Nc1nc(Nc2ccc3c(c2)N(C)CCN(CCO)C3)ncc1Cl` [Example 485, 2-{5-Chloro-2-[4-(2-hydroxy-ethyl)-1-methyl-2,3,4,5-tetrahydro-1H-benzo[e][1,4]diazepin-8-ylamino]-pyrimidin-4-ylamino}-N-methyl-benzamide], the IC50 in assay [1] (setting [5]) and in assay [2] (setting [6]) was less than 100 nM each time.

As for `CNC(=O)c1scc(C)c1Nc1nc(Nc2ccc3c(c2)C(C)(C)CCC(=O)N3)ncc1Cl` [Example 1572, 3-[5-Chloro-2-(5,5-dimethyl-2-oxo-2,3,4,5-tetrahydro-1H-benzo[b]azepin-7-ylamino)-pyrimidin-4-ylamino]-4-methyl-thiophene-2-carboxylic acid methyl amide], the IC50 in assay [1] (setting [9]) and in assay [2] (setting [10]) was 100 to 1000 nM in each case.

As to `CN1C(=O)OCCc2cc(Nc3ncc(Cl)c(Nc4c(F)cccc4OCCN)n3)ccc21` [Example 1781, 2-{4-[2-(2-Amino-ethoxy)-6-fluoro-phenylamino]-5-chloro-pyrimidin-2-ylamino}-5-methyl-8,9-dihydro-5H-7-oxa-5-aza-benzocyclohepten-6-one], the IC50 in assay [1] (setting [9]) and in assay [2] (setting [10]) was 1000 to 10000 nM each time.

In the case of `CC1(C)CCC(=O)Nc2ccc(Nc3ncc(Cl)c(Nc4ccccc4-c4nccs4)n3)cc21` [Example 978, 7-[5-Chloro-4-(2-thiazol-2-yl-phenylamino)-pyrimidin-2-ylamino]-5,5-dimethyl-1,3,4,5-tetrahydro-benzo[b]azepin-2-one], the IC50 is less than 100 nM in assay [1] (setting [3]) and greater than 10000 nM in assay [2] (setting [4]).

For `CNC(=O)c1ccccc1Nc1nc(Nc2ccc3c(c2)CCN(CC(F)(F)F)CC3)ncc1Cl` [Example 41, 2-{5-Chloro-2-[3-(2,2,2-trifluoro-ethyl)-2,3,4,5-tetrahydro-1H-benzo[d]azepin-7-ylamino]-pyrimidin-4-ylamino}-N-methyl-benzamide], the IC50 in assay [1] (setting [5]) and in assay [2] (setting [6]) was less than 100 nM in each case.

Regarding `COc1cc(N2CCOCC2)ccc1Nc1nc(Nc2ccc(OC)c3c2N(C)C(=O)CCC3)ncc1Cl` [Example 124, 9-[5-Chloro-4-(2-methoxy-4-morpholin-4-yl-phenylamino)-pyrimidin-2-ylamino]-6-methoxy-1-methyl-1,3,4,5-tetrahydro-benzo[b]azepin-2-one], the results for the IC50 in assay [1] (setting [5]) and in assay [2] (setting [6]) were less than 100 nM and greater than 10000 nM, respectively.

For `COc1ccc(Nc2nc(Nc3cc4c(cc3OC)CCN(CC(=O)N(C)C)CC4)ncc2Cl)c(-n2cccn2)c1` [Example 616, 2-{7-[5-Chloro-4-(4-methoxy-2-pyrazol-1-yl-phenylamino)-pyrimidin-2-ylamino]-8-methoxy-1,2,4,5-tetrahydro-benzo[d]azepin-3-yl}-N,N-dimethyl-acetamide], the IC50 in assay [1] (setting [3]) is less than 100 nM; in assay [2] (setting [4]), greater than 10000 nM.

On to `CNC(=O)c1scc(C)c1Nc1nc(Nc2ccc3c(c2)CC(=O)NCC3)ncc1Cl` [Example 1812, 3-[5-Chloro-2-(4-oxo-2,3,4,5-tetrahydro-1H-benzo[d]azepin-7-ylamino)-pyrimidin-4-ylamino]-4-methyl-thiophene-2-carboxylic acid methylamide], for which the IC50 in assay [1] (setting [9]) and in assay [2] (setting [10]) was less than 100 nM in each case.
